Values quoted from earlier work as cited in patent US20140030313A1, “TREATMENT OF MENSTRUAL PAIN AND EXCESSIVE MENSTRUAL BLOOD LOSS BY INTRAVAGINAL ADMINISTRATION OF A LOW DOSE OF ANTIFIBRINOLYTIC OR HEMOSTATIC AGENT IN COMBINATION WITH NON-STEROIDAL ANTI-INFLAMMATORY DRUG” (ARSTAT Inc., priority 2011, published 2014).

How the values were obtained:
[1] = oral, 6 g/day
[2] = not given; remark: listed apart in the source
[3] = not given; remark: listed apart in the source
[4] = intravaginal tampon at 20% of the oral dose, vs oral capsules

## aprotinin
Locally administered
  plasma drug levels: without detectable plasma drug levels
  postoperative blood loss: Reduction of the postoperative blood loss

## NC[C@H]1CC[C@H](C(=O)O)CC1 [tranexamic acid]
mouthwash, compared to placebo
  incidence of postoperative bleeding complications: reduce the incidence of postoperative bleeding complications
[1]
  risk of gastrointestinal adverse events: increased
[2]; tranexamic acid vs placebo treatment
  difference to placebo in reduction of large stains, small and large clots and changes in serum ferritin levels: no statistically significant differences
[3]; after a mouth rinse
  plasma concentrations: below 2 mcg/mL
  saliva concentrations, maximum level: above 200 mcg/mL
  time saliva concentration remained at a therapeutic level: more than two hours
[3]; after an oral tablet
  drug in saliva samples: not detected
  mean drug plasma concentrations: 7000 ng/mL

## Cc1cccc(Nc2ccccc2C(=O)O)c1C [mefenamic acid]
[4]
  pain relief: pain relief equivalent to that achieved with the oral capsules

## NC[C@H]1CC[C@H](C(=O)O)CC1 [Lysteda]
[2]; Lysteda NDA medical review
  subjects returned to normal MBL after treatment (mean on-treatment MBL of less than 80 mL): 44%
[2]; oral, 3900 mg/day regimen
  MBL reduction targets established by the FDA: meets MBL reduction targets established by the FDA
